Measured values from US20250059174A1, “Pharmaceutical Compounds and Compositions as C-Kit Kinase Inhibitors” (Enanta Pharmaceuticals, Inc., priority 2023, published 2025).

Assays:
M-07e cells = assay: M-07e cellular assay (SCF-mediated cell proliferation); assay type: cell-based; details: Homo sapiens, 72 hours, CellTiter Glo
In short: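 CellTiter Glo luminescence after 72 h compound exposure in SCF (EC90)-stimulated M-07e cells expressing endogenous human c-KIT.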

[1] = biological target: Recombinant human c-KIT kinase (Homo sapiens (Human), UniProt P10721); assay: c-KIT kinase chemiluminescence assay (ADP-Glo); assay type: biochemical; details: ATP 50 μM
Chain of Recombinant human c-KIT kinase (P10721 26-976): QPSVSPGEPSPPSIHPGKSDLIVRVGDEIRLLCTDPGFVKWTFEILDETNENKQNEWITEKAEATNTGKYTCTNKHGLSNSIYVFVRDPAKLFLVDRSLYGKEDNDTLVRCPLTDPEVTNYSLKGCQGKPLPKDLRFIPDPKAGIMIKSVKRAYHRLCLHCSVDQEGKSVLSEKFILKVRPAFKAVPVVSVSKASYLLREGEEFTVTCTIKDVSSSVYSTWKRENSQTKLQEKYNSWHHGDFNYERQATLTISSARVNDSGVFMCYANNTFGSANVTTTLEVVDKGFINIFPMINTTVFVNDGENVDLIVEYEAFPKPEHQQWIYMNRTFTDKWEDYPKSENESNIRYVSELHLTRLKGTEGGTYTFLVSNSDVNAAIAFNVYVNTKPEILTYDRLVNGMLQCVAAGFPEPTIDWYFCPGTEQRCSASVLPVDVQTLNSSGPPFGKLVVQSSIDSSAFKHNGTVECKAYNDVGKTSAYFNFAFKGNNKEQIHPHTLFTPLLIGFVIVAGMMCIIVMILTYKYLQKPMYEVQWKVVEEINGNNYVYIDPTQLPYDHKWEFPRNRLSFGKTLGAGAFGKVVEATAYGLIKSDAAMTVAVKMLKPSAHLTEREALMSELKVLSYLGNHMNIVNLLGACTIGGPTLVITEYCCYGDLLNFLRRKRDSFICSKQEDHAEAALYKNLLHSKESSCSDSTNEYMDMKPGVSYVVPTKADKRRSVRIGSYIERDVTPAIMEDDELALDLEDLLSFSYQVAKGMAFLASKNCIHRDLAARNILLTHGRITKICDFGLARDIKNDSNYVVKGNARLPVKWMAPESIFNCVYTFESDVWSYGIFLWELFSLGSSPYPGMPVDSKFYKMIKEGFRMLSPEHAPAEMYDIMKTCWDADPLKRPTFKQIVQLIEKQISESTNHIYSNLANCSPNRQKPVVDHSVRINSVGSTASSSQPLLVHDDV
In short: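 ADP formed by c-KIT on polyEY over 2 h at RT (after 30 min enzyme preincubation; Tris pH 7.5, MgCl2, BSA, DTT buffer) was detected by ADP-Glo luminescence. IC50 and Hill slope were fitted to control-normalized activity across compound concentrations.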

IC50 [1] [nM]	Compound	EC50 (M-07e cells) [nM]
100 to 1000	Cc1ncc(-c2noc(C3(F)CN(C(=O)C(C)(F)F)C3)n2)cc1NC(=O)c1cnn2ccc(N3CC4(C3)CC(O)(C(F)F)C4)cc12 [Example 281-103]	> 1000
> 1000	COC(=O)N1CC(F)(c2nc(-c3cnc(C)c(NC(=O)c4cnn5ccc(N6CC7(C6)CC(O)(C(F)F)C7)cc45)c3)no2)C1 [Example 281-104]	> 1000
100 to 1000	Cc1ncc(-c2noc(C3(F)CN(CC(F)F)C3)n2)cc1NC(=O)c1cnn2ccc(N3CC4(C3)CC(O)(C(F)F)C4)cc12 [Example 281-105]	100 to 1000
100 to 1000	Cc1ccc(-c2noc(C3CC4(C3)CN(C(=O)[C@H]3C[C@@H]3F)C4)n2)cc1NC(=O)c1cnn2ccc(N3CC4(COC4)C3)cc12 [Example 281-106]	100 to 1000
100 to 1000	Cc1ccc(-c2noc(C3CC4(C3)CN(C(=O)[C@H]3C[C@@H]3F)C4)n2)cc1NC(=O)c1cnn2ccc(N3CC4(C3)CC(O)(C(F)F)C4)cc12 [Example 281-107]	100 to 1000
< 100	COC(=O)N1CCC(c2nc(-c3ccc(C)c(NC(=O)c4cnn5ccc(N6CC7(C6)CC(O)(C(F)F)C7)cc45)c3)no2)C1 (stereo not drawn) [Example 281-108]	< 100
< 100	COC(=O)N1CC2(CC(c3nc(-c4ccc(C)c(NC(=O)c5cnn6ccc(N7CC8(C7)CC(O)(C(F)F)C8)cc56)c4)no3)C2)C1 [Example 281-109]	100 to 1000
< 100	CCOC(=O)N1CC(c2nc(-c3ccc(C)c(NC(=O)c4cnn5ccc(N6CC7(COC7)C6)cc45)c3)no2)C1 [Example 281-110]	< 100
> 1000	Cc1sc(-c2noc(C3(F)CN(C(=O)[C@H]4C[C@@H]4F)C3)n2)cc1NC(=O)c1cnn2ccc(N3CC4(C3)CC(O)(C(F)F)C4)cc12 [Example 281-111]	100 to 1000
< 100	Cc1sc(-c2noc([C@H]3C[C@@H](OC(F)(F)F)C3)n2)cc1NC(=O)c1cnn2ccc(N3CC4(C3)CC(O)(C(F)F)C4)cc12 [Example 281-112]	100 to 1000
100 to 1000	Cc1sc(-c2noc([C@H]3C[C@@H](OC(F)(F)F)C3)n2)cc1NC(=O)c1cnn2ccc(N3CC4(COC4)C3)cc12 [Example 281-113]	100 to 1000
> 1000	Cc1sc(-c2noc(C3CN(C(=O)OC(C)(C)C)C3)n2)cc1NC(=O)c1cnn2ccc(N3CC4(COC4)C3)cc12 [Example 281-114]	> 1000
> 1000	Cc1sc(-c2noc(C3CN(C(=O)OC(C)(C)C)C3)n2)cc1NC(=O)c1cnn2ccc(N3CC4(C3)CC(O)(C(F)F)C4)cc12 [Example 281-115]	> 1000
100 to 1000	O=C(Nc1cc(-c2noc([C@H]3C[C@@H]3F)n2)ccc1C(F)F)c1cnn2ccc(N3CC4(COC4)C3)cc12 [Example 281-116]	100 to 1000
100 to 1000	Cc1sc(-c2noc([C@H]3C[C@@H]3F)n2)cc1NC(=O)c1cnn2ccc(N3CC4(COC4)C3)cc12 [Example 281-117]	100 to 1000
100 to 1000	O=C(Nc1cc(-c2noc([C@H]3C[C@@H]3F)n2)ccc1C(F)F)c1cnn2ccc(N3CC4(C3)CC(O)(C(F)F)C4)cc12 [Example 281-118]	< 100
100 to 1000	O=C(Nc1cc(-c2noc(N3CC(F)(F)C3)n2)ccc1Cl)c1cnn2ccc(N3CC4(C3)CC(O)(C(F)F)C4)cc12 [Example 281-119]	< 100
100 to 1000	Cc1ncc(-c2noc(N3CC(F)(F)C3)n2)cc1NC(=O)c1cnn2ccc(N3CC4(COC4)C3)cc12 [Example 281-120]	100 to 1000
100 to 1000	Cc1ncc(-c2noc(N3CC(F)(F)C3)n2)cc1NC(=O)c1cnn2ccc(N3CC4(C3)CC(O)(C(F)F)C4)cc12 [Example 281-121]	< 100
100 to 1000	Cc1sc(-c2noc(C3CN(C(=O)C4CC4)C3)n2)cc1NC(=O)c1cnn2ccc(N3CC4(C3)CC(O)(C(F)F)C4)cc12 [Example 281-122]	> 1000
< 100	O=C(Nc1cc(-c2noc(N3CC(O)(C(F)(F)F)C3)n2)ccc1Cl)c1cnn2ccc(N3CC4(COC4)C3)cc12 [Example 281-123]	< 100
100 to 1000	O=C(Nc1cc(-c2noc(N3CC(F)(F)C3)n2)ccc1Cl)c1cnn2ccc(N3CC4(COC4)C3)cc12 [Example 281-124]	< 100
< 100	O=C(Nc1cc(-c2noc(N3CC(O)(C(F)(F)F)C3)n2)ccc1Cl)c1cnn2ccc(N3CC4(C3)CC(O)(C(F)F)C4)cc12 [Example 281-125]	< 100
> 1000	Cc1sc(-c2noc(C3CN(C(=O)[C@H]4C[C@@H]4F)C3)n2)cc1NC(=O)c1cnn2ccc(N3CC4(COC4)C3)cc12 [Example 281-126]	> 1000
100 to 1000	Cc1sc(-c2noc(C3CN(C(=O)[C@H]4C[C@@H]4F)C3)n2)cc1NC(=O)c1cnn2ccc(N3CC4(C3)CC(O)(C(F)F)C4)cc12 [Example 281-127]	> 1000
100 to 1000	Cc1sc(-c2noc(C3CN(C(=O)C4(F)CC4)C3)n2)cc1NC(=O)c1cnn2ccc(N3CC4(COC4)C3)cc12 [Example 281-128]	100 to 1000

IC50 [1] [nM]	Compound	EC50 (M-07e cells) [nM]
100 to 1000	Cc1sc(-c2noc(C3CN(C(=O)C4(F)CC4)C3)n2)cc1NC(=O)c1cnn2ccc(N3CC4(C3)CC(O)(C(F)F)C4)cc12 [Example 281-129]	100 to 1000
100 to 1000	Cc1ncc(-c2noc(C3CN(CC(F)F)C3)n2)cc1NC(=O)c1cnn2ccc(N3CC4(C3)CC(O)(C(F)F)C4)cc12 [Example 281-130]	100 to 1000
< 100	COC(=O)N1CCC(c2nc(-c3ccc(C)c(NC(=O)c4cnn5ccc(N6CC7(COC7)C6)cc45)c3)no2)C1 (stereo not drawn) [Example 281-131]	< 100
< 100	COC(=O)N1CCC(c2nc(-c3ccc(C)c(NC(=O)c4cnn5ccc(N6CC7(COC7)C6)cc45)c3)no2)CC1 [Example 281-132]	< 100
100 to 1000	COC(=O)N1CC2(CC(c3nc(-c4ccc(C)c(NC(=O)c5cnn6ccc(N7CC8(COC8)C7)cc56)c4)no3)C2)C1 [Example 281-133]	100 to 1000
< 100	COC(=O)N1CCC(c2nc(-c3ccc(C)c(NC(=O)c4cnn5ccc(N6CC7(C6)CC(O)(C(F)F)C7)cc45)c3)no2)CC1 [Example 281-134]	< 100
< 100	Cc1ccc(-c2noc([C@]3(C)C[C@H](OC(F)F)C3)n2)cc1NC(=O)c1cnn2ccc(N3CC4(COC4)C3)cc12 [Example 281]	< 100
100 to 1000	COc1cccc(-c2ncc(C(=O)Nc3cc(-c4noc([C@H]5C[C@@H]5F)n4)ccc3C)o2)c1 [Example 283]	< 100
> 1000	COc1ccccc1-c1ncc(C(=O)Nc2cc(-c3noc([C@H]4C[C@@H]4F)n3)ccc2C)o1 [Example 284]	> 1000
> 1000	Cc1ccc(-c2noc([C@H]3C[C@@H]3F)n2)cc1NC(=O)c1cnc(-c2cccnc2)o1 [Example 285]	> 1000
> 1000	Cc1ccc(-c2noc([C@H]3C[C@@H]3F)n2)cc1NC(=O)c1cnc(-c2ccncc2)o1 [Example 286]	100 to 1000
100 to 1000	Cc1ccc(-c2noc([C@H]3C[C@@H]3F)n2)cc1NC(=O)c1cnc(-c2ccc(N)nc2)o1 [Example 287]	100 to 1000
100 to 1000	Cc1ccc(-c2noc([C@H]3C[C@@H]3F)n2)cc1NC(=O)c1cnc(-c2cccc(N3CC4(COC4)C3)c2)o1 [Example 288]	100 to 1000
> 1000	Cc1ccc(-c2noc([C@H]3C[C@@H]3F)n2)cc1NC(=O)c1cnc(-c2ccccc2N2CC3(COC3)C2)o1 [Example 289]	> 1000
100 to 1000	Cc1ccc(-c2noc([C@H]3C[C@@H]3F)n2)cc1NC(=O)c1cnc(-c2ccnc(N)c2)o1 [Example 290]	100 to 1000
> 1000	Cc1ccc(-c2noc([C@H]3C[C@@H]3F)n2)cc1NC(=O)c1cnc(-c2ccnc(NC(=O)OC(C)(C)C)c2)o1 [Example 291]	> 1000
< 100	Cc1ccc(-c2noc([C@H]3C[C@@H]3F)n2)cc1NC(=O)c1cnc(-c2ccc3[nH]ncc3c2)o1 [Example 292]	< 100
< 100	Cc1ccc(-c2noc([C@H]3C[C@@H]3F)n2)cc1NC(=O)c1cnc(-c2ccc3[nH]ccc3c2)o1 [Example 293]	< 100
< 100	Cc1ccc(-c2noc([C@H]3C[C@@H]3F)n2)cc1NC(=O)c1cnc(-c2ccc3cn[nH]c3c2)o1 [Example 294]	100 to 1000
< 100	Cc1ccc(-c2noc([C@H]3C[C@@H]3F)n2)cc1NC(=O)c1cnc(-c2ccc3cc[nH]c3c2)o1 [Example 295]	100 to 1000
> 1000	Cc1ccc(-c2noc([C@H]3C[C@@H]3F)n2)cc1NC(=O)c1cnc(-c2ccccn2)o1 [Example 296]	> 1000
100 to 1000	Cc1ccc(-c2noc([C@H]3C[C@@H]3F)n2)cc1NC(=O)c1cnc(-c2ccc(N3CC4(COC4)C3)cc2)o1 [Example 297]	100 to 1000
> 1000	Cc1ccc(-c2noc([C@H]3C[C@@H]3F)n2)cc1NC(=O)c1cnc(-c2ccc(NC(=O)OC(C)(C)C)nc2)o1 [Example 298]	100 to 1000
< 100	Cc1ccc(-c2noc([C@H]3C[C@@H]3F)n2)cc1NC(=O)c1cnc(-c2ccc3c(c2)CC(=O)N3)o1 [Example 299]	< 100
100 to 1000	Cc1ccc(-c2noc([C@H]3C[C@@H]3F)n2)cc1NC(=O)c1cnc(-c2ccc3[nH]c(=O)oc3c2)o1 [Example 300]	100 to 1000
